Assay results taken from patent US8815852B2, “Carbamoyloxy arylalkan arylpiperazine analgesics” (SK Biopharmaceuticals Co., Ltd., priority 2007, dated 2014).

System: male ICR mouse
Test: Acetic acid-induced writhing test in mouse
Format: in vivo
Conditions: Mus musculus, po, 1 h, at 10 po (method: 10 mg/kg oral, 1 hour before acetic acid); read-out: AA Writhing: Suppression ratio of Pain response
Method: 2. Acetic Acid-Induced Writhing Test in Mouse
An acetic acid-induced writhing test is one of models for measuring an analgesic effect of drugs. A test material dissolved in a suitable vehicle was orally administered to a male ICR mouse weighing 30 to 35 g at an amount of 10 mg/kg. After 1 hour of the oral administration, […] of an aqueous 0.8% acetic acid solution was intraperitoneally injected into the male ICR mouse to induce the abdominal pain of the male ICR mouse. Right after the administration of acetic acid, the male ICR mouse was put into an empty cage, and the number of writhing behaviors of the mice was counted for 10 minutes. The term “writhing represents a reflex action in which the mouse overtly extends its abdomen by stretching its hind legs due to the abdominal pain. The analgesic effect of the test material is represented by the ‘suppression ratio of pain response’ {[(Writhing number of Vehicle-administered group−Writhing number of Test material-administered group)/(Writhing number of Vehicle-administered group)]×100%} or 50% of Effective amount (ED50 (median effective dose); an amount of test material that is required to suppress 50% of pain behaviors) of Test material. The ED50 (median effective dose) was determined by calculating the suppression ratio of pain response in at least three doses of test materials and subjecting to the linear regression.

SMILES | inhibition in vivo at 10 mg/kg [%]
NC(=O)OC(CCN1CCN(c2ccc3c(c2)OCCO3)CC1)c1ccccc1 (stereo not shown) [Example 11, Carbamic acid 3-[4-(2,3-dihydro-benzo[1,4]dioxin-6-yl)-piperazin-1-yl]-1-phenyl-propyl ester] | 48
NC(=O)OC(CCN1CCN(c2ccc(OC(F)(F)F)cc2)CC1)c1ccccc1 (stereo not shown) [Example 12, Carbamic acid 1-phenyl-3-[4-(4-trifluoromethoxy-phenyl)-piperazin-1-yl]-propyl ester] | 18
Cc1ccc(N2CCN(CCC(OC(N)=O)c3ccccc3)CC2)c(C)c1 (stereo not shown) [Example 13, Carbamic acid 3-[4-(2,4-dimethyl-phenyl)-piperazin-1-yl]-1-phenyl-propyl ester] | 34
COc1ccc(N2CCN(CCC(OC(N)=O)c3ccccc3)CC2)c(OC)c1 (stereo not shown) [Example 17, Carbamic acid 3-[4-(2,4-dimethoxy-phenyl)-piperazin-1-yl]-1-phenyl-propyl ester] | 19
NC(=O)OC(CCN1CCN(c2ccc(Cl)c(C(F)(F)F)c2)CC1)c1ccccc1 (stereo not shown) [Example 18, Carbamic acid 3-[4-(4-chloro-3-trifluoromethyl-phenyl)-piperazin-1-yl]-1-phenyl-propyl ester] | 52
Cc1cccc(C)c1N1CCN(CCC(OC(N)=O)c2ccccc2)CC1 (stereo not shown) [Example 19, Carbamic acid 3-[4-(2,6-dimethyl-phenyl)-piperazin-1-yl]-1-phenyl-propyl ester] | 48
NC(=O)OC(CCN1CCN(c2ccccc2O)CC1)c1ccccc1 (stereo not shown) [Example 23, Carbamic acid 3-[4-(2-hydroxy-phenyl)-piperazin-1-yl]-1-phenyl-propyl ester] | 37
Cc1ccc(N2CCN(CCC(OC(N)=O)c3ccccc3)CC2)cc1C (stereo not shown) [Example 29, Carbamic acid 3-[4-(3,4-dimethyl-phenyl)-piperazin-1-yl]-1-phenyl-propyl ester] | 99
NC(=O)OC(CCN1CCN(c2ccc3c(c2)OCO3)CC1)c1ccccc1 (stereo not shown) [Example 30, Carbamic acid 3-(4-benzo[1,3]dioxol-5-yl-piperazin-1-yl)-1-phenyl-propyl ester] | 93
NC(=O)OC(CCN1CCN(c2ccc(Cl)c(Cl)c2)CC1)c1ccccc1 (stereo not shown) [Example 31, Carbamic acid 3-[4-(3,4-dichloro-phenyl)-piperazin-1-yl]-1-phenyl-propyl ester] | 85
COc1ccc(Cl)cc1N1CCN(CCC(OC(N)=O)c2ccccc2)CC1 (stereo not shown) [Example 32, Carbamic acid 3-[4-(5-chloro-2-methoxy-phenyl)-piperazin-1-yl]-1-phenyl-propyl ester] | 23
COc1cc(OC)cc(N2CCN(CCC(OC(N)=O)c3ccccc3)CC2)c1 (stereo not shown) [Example 33, Carbamic acid 3-[4-(3,5-dimethoxy-phenyl)-piperazin-1-yl]-1-phenyl-propyl ester] | 13
NC(=O)OC(CCN1CCN(c2ncccn2)CC1)c1ccccc1 (stereo not shown) [Example 34, Carbamic acid 1-phenyl-3-(4-pyrimidin-2-yl-piperazin-1-yl)-propyl ester] | 21
NC(=O)OC(CCN1CCN(c2ccc(C(F)(F)F)cc2[N+](=O)[O-])CC1)c1ccccc1 (stereo not shown) [Example 35, Carbamic acid 3-[4-(2-nitro-4-trifluoromethyl-phenyl)-piperazin-1-yl]-1-phenyl-propyl ester] | 50

Same assay, conditions: Mus musculus; ip; unit not given (method doses in mg/kg); read-out: AA Writhing: ED50

SMILES | ED50 [mg/kg]
Cc1cccc(N2CCN(CCC(OC(N)=O)c3ccccc3)CC2)c1 (stereo not shown) [Example 24, Carbamic acid 1-phenyl-3-(4-m-tolylpiperazin-1-yl)-propyl ester] | 0.81
NC(=O)OC(CCN1CCN(c2ccc(C(F)(F)F)cc2)CC1)c1ccccc1 (stereo not shown) [Example 40, Carbamic acid 1-phenyl-3-[4-(4-trifluoromethyl-phenyl)-piperazin-1-yl]-propyl ester] | 1.64
